Laboratory results taken from patent publication US5932742A, “Arylsulfonylimidazolone derivatives as an antitumor agent” (priority 1996, dated 1999).
In brackets after ≈: the same amount, converted by molar mass. Entries after “also recorded” stand apart in the source; their conditions may differ. Counter-ions that a name gives are not always drawn. Like-named read-outs stand apart in the source and are kept apart here. One block for each compound: values may come before it.

Columns and labels:
[1] = tested on: Colon 26 murine colon cancer cell; assay: In vivo antitumor activity against Colon 26 murine colon cancer cell; parameters: species or system Balb/C mouse; settings: 65 mg/kg p.o., once per 2 days for 10 days; tumor weight
Experimental: In vivo antitumor activity against Colon 26 murine colon cancer cell
Colon 26 murine cancer cells were injected into Balb/C mouse intradermally and grown in mouse abdominal skin to a solid tumor. The Colon 26 tumors were periodically excised from the mouse, digested with an enzyme mixture containing collagenase and DNase, and then intradermally reinjected into mouse for subculture.
The cells were washed, resuspended in saline (5×10^6 cells/ml) and inoculated (5×10^5 cells/0.1 ml) intradermally to abdominal part of Balb/C mouse of which hair was removed in advance. Each test compound was dissolved in a solvent mixture of 60% propylene glycol(PG), 40% cremophor RH60(CP), and distilled water(DW) in the volume ratio of 30:20:50. When the size of tumor reached at appropriate level, the test compound was administered orally into the mouse which was implanted with colon 26 tumor cells in the frequency of once per 2 days for 10 days. The vehicle was also administered into the mouse of control group. The major and minor axis of tumor in each group were regularly measured by vernier calipers to estimate the increase of the tumor volume. Tumor volume was calculated on the basis of the following formula
Tumor volume(mm^3)=(1/2)×[length of major axis(mm)]×[length
When the tumor volume of the control group reached at about 1500 mm^3, the test animals were sacrificed by cervical dislocation and tumor was carefully excised and weighed. The inhibition rate of tumor growth (%) of each test compound was calculated as follows: […]
group.div.Tumor weight of control group)]

[2] = tested on: K562 (ATCC CCL 243): human chronic myelogenous leukemia; assay: In vitro antitumor activity, MTT assay, K562; format: cell-based; settings: for IC50: Homo sapiens, K562, 48 h
Outline: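 K562 cells (10,000/well) pre-cultured 24 hrs, then exposed 48 hrs at 37° C. to serially 5-fold diluted compound, final 20 μg/ml to 0.00128 μg/ml, DMSO below 0.5%. MTT added 4 hrs; formazan dissolved in DMSO, A540 read. Cytotoxicity as test/control absorbance; IC50 by linear regression.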

[3] = tested on: Colo205 (ATCC CCL 222): human colon adenocarcinoma; assay: In vitro antitumor activity, MTT assay, Colo205; format: cell-based; settings: for IC50: Homo sapiens
Outline: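 Colo205 cells in RPMI 1640/10% FBS were exposed 48 h at 37 °C to 5-fold serial dilutions, final 20 to 0.00128 µg/ml, DMSO below 0.5%. MTT added for 4 h, formazan dissolved in DMSO, A540 read versus medium control; IC50 by linear regression.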

[4] = tested on: SK-OV-3 (ATCC HTB 77): human ovarian adenocarcinoma; assay: In vitro antitumor activity, MTT assay, SK-OV-3; format: cell-based; settings: for IC50: Homo sapiens
Outline: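 Cells seeded at 10,000 per well, grown 24 h, then exposed 48 h at 37 °C to compound at final 20 to 0.00128 μg/ml (5-fold dilutions, DMSO below 0.5%). MTT added for 4 h, formazan dissolved in DMSO, absorbance read at 540 nm; IC50 estimated by linear regression.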

[5] = tested on: P388 murine leukemia cells; assay: In vivo antitumor activity against P388 murine leukemia cell; parameters: species or system BDF1 mouse; settings: once per 2 days for 10 days, median survival time
Experimental: In vivo antitumor activity against P388 murine leukemia cell
P388 murine leukemia cells were injected into BDF1 mouse intraperitoneally and grown in the peritoneal cavity. The P388 cells were periodically exudated and reinjected intraperitoneally into mouse for subculture.
The cells were exudated, washed, resuspended in saline (2×10^7 cells/ml), and then injected intraperitoneally again into BDF1 mouse (2×10^6 cells/0.1 ml).
Test compound dissolved in appropriate vehicle was administered intraperitonealy or orally into the mouse which was implanted with P388 murine leukemia tumor cells in the frequency of once per 2 days for 10 days. The vehicle was administered into the mouse of control group. Then, the number of live animals were daily checked to estimate the median survival time (MST).
T/C ratio(%) of each test compound was calculated according to the following formula, and the test results are shown in Table 6.
T/C(%)=(MST of test group.div.MST of control group)×100

[6] = tested on: A549 (ATCC CCL 185): human lung carcinoma; assay: In vitro antitumor activity, MTT assay, A549; format: cell-based; settings: for IC50: Homo sapiens, A549, 48 h
Outline: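 A549 cells in RPMI 1640 with 10% FBS, 10,000 cells/well, pre-cultured 24 hrs, then exposed 48 hrs at 37° C to compound at 20 to 0.00128 μg/ml final (5-fold steps, DMSO below 0.5%). MTT added for 4 hrs, formazan dissolved in DMSO and read at 540nm; IC50 by linear regression of % of control.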

[7] = literature; cited from earlier work
[8] = tested on: solid tumors and human tumor xenogafts; settings: J. Med. Chem., 1990, 33, 2393; cited from earlier work
[9] = Acute toxicity test (LD50); format: in vivo; settings: in vivo, po; gastric lavage, male Wistar rat; probit method; 95% confidence interval in parenthesis on the next line
Experimental: (§1) Acute toxicity test (LD50)
(§2) Male Wistar Rat (Charles River Japan, ca, 6 weeks old) was used as test animal and sodium-carboxymethylcellulose (Na-CMC, Sigma Chemical, U.S.A.) was used as a vehicle control. Compounds 57 and 65 were suspended in 0.5% Na-CMC, respectively, before dosing. Test compounds were administered by gastric lavage with the dosage of 400, 550, 700, 850 and ^1000 mg/kg. Control group was treated only with 0.5% Na-CMC. Each group was consisted of 5 rats.

Male Wistar Rat = assay: Acute toxicity test (LD50); format: in vivo; settings: gastric lavage
Experimental: as §1, §2

[10] = COLO 205, Table 5, 48 hrs, read-out: IC50 (Colo205)

IC50 ([2]; Table 5, read-out: IC50 (K562)): 0.829 µg/mL | IC50 [3, 10]: 0.268 µg/mL | IC50 ([4]; SK-OV-3, Table 5, 48 hrs): 0.062 µg/mL | IC50 ([6]; Table 5): 0.105 µg/mL
Structure (SMILES): Nc1ccc(C(=O)N2CCc3cc(S(=O)(=O)N4C[C@H](c5ccccc5)NC4=O)ccc32)cc1 [Example 65, (S)-(+)-4-phenyl-1-[N-(4-aminobenzoyl)indoline-5-sulfonyl]-4,5-dihydro-2-imidazolone.HCl]
Inhibition rate of tumor growth (%) [1]: 69.2% | T/C rate (%) ([5]; 65 mg/kg p.o.): 138.5%

IC50 ([2]; Table 3, read-out: IC50 (K562)): 17.6 µg/mL (≈ 50.1 µM) | IC50 ([2]; Table 4, read-out: IC50 (K562)): 17.6 µg/mL (≈ 50.1 µM) | IC50 ([2]; Table 5, read-out: IC50 (K562)): 17.6 µg/mL (≈ 50.1 µM) | IC50 ([3]; COLO 205, Table 3, 48 hrs, read-out: IC50 (Col205)): 48.9 µg/mL (≈ 139 µM) | IC50 [3, 10]: 48.9 µg/mL (≈ 139 µM) | IC50 ([4]; SK-OV-3, Table 5, 48 hrs): 78.2 µg/mL (≈ 223 µM) | IC50 ([6]; Table 1): 12.8 µg/mL (≈ 36.4 µM) | IC50 ([6]; Table 3): 12.8 µg/mL (≈ 36.4 µM) | IC50 ([6]; Table 4): 12.8 µg/mL (≈ 36.4 µM) | IC50 ([6]; Table 5): 12.8 µg/mL (≈ 36.4 µM)
Structure (SMILES): O=C(Nc1ccc(Cl)cc1)NS(=O)(=O)c1ccc2c(c1)CCC2 [Sulofenur, reference compound]
side effects [7]: does not produce serious side effects including myelosuppression, nausea, vomiting, alopecia, mucositis, and hepatotoxicity; also recorded: only shows minor side effects such as anemia or methemoglobinemia | antitumor activity [8]: exhibits potent antitumor activity upon solid tumors; also recorded: exceptionally broad spectrum of activity upon solid tumors and human tumor xenogafts

Structure (SMILES): Cl.NC(Cc1ccccc1)C(=O)Nc1ccc(C(=O)N2CCc3cc(S(=O)(=O)N4C[C@H](c5ccccc5)NC4=O)ccc32)cc1 (stereo partly drawn) [Example 68, (S)-(-)-4-phenyl-1-[N-{4-(2-amino-3-phenyl-propanoyl)aminobenzoyl}indoline-5-sulfonyl]-4,5-dihydro-2-imidazolone.HCl]
Inhibition rate of tumor growth (%) [1]: 45.3% | IC50 (K562) ([2]; Table 5, 48 hrs): 0.561 µg/mL | IC50 (Colo205) ([3]; Table 5, 48 hrs): 0.598 µg/mL | IC50 (SK-OV-3) ([4]; Table 5, 48 hrs): 0.137 µg/mL | IC50 (A549) ([6]; Table 5, 48 hrs): 0.083 µg/mL

Structure (SMILES): Nc1ccc(C(=O)N2CCc3cc(S(=O)(=O)N4CC(c5ccccc5)NC4=O)ccc32)cc1 (stereo not shown) [Example 57, 4-phenyl-1-[N-(4-aminobenzoyl)indoline-5-sulfonyl]-4,5-dihydro-2-imidazolone.HCl]
LD50 [9]: 644 mg/kg | Acute toxicity, animals per group (dead/total) (Male Wistar Rat; 400 mg/kg): 0/5 | Acute toxicity, animals per group (dead/total) (Male Wistar Rat; 550 mg/kg): 1/5 | Acute toxicity, animals per group (dead/total) (Male Wistar Rat; 700 mg/kg): 3/5 | Acute toxicity, animals per group (dead/total) (Male Wistar Rat; 850 mg/kg): 5/5 | Acute toxicity, animals per group (dead/total) (Male Wistar Rat; 1000 mg/kg): 5/5 | Inhibition rate of tumor growth (%) [1]: 67.4% | IC50 ([2]; Table 4, read-out: IC50 (K562)): 0.203 µg/mL | IC50 ([4]; SK-OV-3, Table 4, 48 hrs): 0.572 µg/mL | T/C rate (%) ([5]; 50 mg/kg p.o.): 133.3% | T/C rate (%) ([5]; 65 mg/kg p.o.): 146.0% | T/C rate (%) ([5]; 100 mg/kg i.p.): 166.7% | T/C rate (%) ([5]; 100 mg/kg p.o.): 175.0% | IC50 ([6]; Table 4): 0.09 µg/mL
